“Also recorded” adds a separate entry of the source.
Assays:
Type in all cases: in vivo, mouse
spleen cell subsets [1] = assay: Spleen cell subsets of treated BWF1 mice by flow cytometry; details: for Percentage of CD8^+ cells in spleen: compared to the control mice; for Frequency of cells ± SEM: CD11b^+Ly6C^hiGr-1^− (MΦ^2) / Frequency of cells ± SEM: CD11b^+Ly6C^intGr-1^+ (Gr-1) / Frequency of cells ± SEM: CD 19^+ / Frequency of cells ± SEM: CD19^+CD23^−CD21^+IgM^hi (MZ): spleen at age 32 weeks, oral gavage from age 11 weeks, LAQ 25 mg/kg 3 days per week, MMF 100 mg/kg 5 days/week; for Frequency of cells ± SEM: CD 19^+ / Frequency of cells ± SEM: CD19^+CD23^−CD21^+IgM^hi (MZ): in % (unit assumed); for Percentage of CD4^+ T cells in spleen: vs control mice
Excerpt: Water-gavaged mice constituted the control untreated animals. The spleen cell subsets were identified by the expression of cell surface markers at age 32 weeks as follow: iTregs; nTregs; MΦ: CD11b^−CD103^−; MΦ^2: CD11b^+Ly6C^hiGr-1^−; MΦ^3: CD11b^+Ly6C^intGr-1^−; Gr-1: CD11b ly6C^intGr-1^+; DC: CD11c^+CD103^+; T2: CD19^+CD23^+CD21^+IgM^hi; MZ: CD19^+CD23^−CD21^+IgM^hi. Abbreviations: iTregs=induced T regulatory cells (Tregs). nTregs=natural Tregs. T2=transitional 2 B cells. MZ=marginal zone B cells. MΦ=macrophages. Gr1=granulocytes. Values are mean±SEM. The statistical significance between the groups was determined by analysis of variance (-A-NOVA). ^AP<0.05 versus untreated controls.
Single cell suspensions of splenocytes or kidney cells were prepared using cell strainers (Fisher), followed by red blood cell lysis. Kidney lymphocytes were separated from connective tissue by centrifugation (15 minutes at 400g) in 30% Percoll (GE Healthcare). CD4^+CD25^− cells from spleen and kidney were isolated using the CD4^+CD25^+ regulatory T cell isolation kit according to manufacturer's protocol (Miltenyi). CD11b+ cells were isolated using EasySep mouse CD11b positive selection kit (StemCell Technologies), surface stained for Ly6C and Ly6G prior to sorting myeloid-derived suppressor cells (MDSC) using FACSAria II. Populations were >95% pure by FACS analysis.
Single-cell suspensions from spleen or kidneys were stained for extracellular markers for 20 min at 4° C. in PBS/1% FBS. Intracellular staining for Foxp3 and cytokines was performed using the Foxp3 Fixation/Permeabilization kit according to the manufacturer's protocol (eBioscience). Cells were acquired on a FACS LSR II (BD) and data was analyzed using Flowjo (Tree Star).

spleen cell subsets [2] = assay: as above; details: for Numbers of MM (splenic PBMC): mouse, in vivo; for Frequency of cells ± SEM: CD4+ / Frequency of cells ± SEM: CD8+ / Frequency of cells ± SEM: CD11b^+Ly6C^+Ly6G+ / Frequency of cells ± SEM: CD11b^+Ly6C^+Ly6G− / Frequency of cells ± SEM: CD11b^+MDSC−(Mφ) / Frequency of cells ± SEM: CD11c^+CD11b+(DC) / Frequency of cells ± SEM: CD11c^+CD11b− (DC) / Frequency of cells ± SEM: CD4^+CD25^+Foxp3^+ / Frequency of cells ± SEM: CD19+: spleen, LAQ 25 mg/kg, MMF 100 mg/kg
[3] = tested on: BWF1 mice with anti-dsDNA and low proteinuria (PU^lo); assay: Therapeutic treatment of BWF1 mice with anti-dsDNA and low proteinuria (PU^lo); details: LAQ 25 mg/kg, MMF 100 mg/kg; for Anti-dsDNA / Increase of proteinuria / Rise in serum creatinine / Survival: PU^lo arm; for Reduction of endo-capillary hypercellularity, interstitial inflammation, and focal segmental glomerulosclerosis: PU^lo mice
Protocol: Therapeutic Groups: a low proteinuria group)(PU^lo) consisted of mice with IgG anti-dsDNA detectable in serum and proteinuria ≦100 mg/dL, and a high proteinuria group (PU^hi) had proteinuria ≧300 mg/dL.
Proteinuria was evaluated weekly using Albustix (Siemens), serum creatinine using a commercial kit (Arbor Assays) and anti-dsDNA IgG antibodies by ELISA as described previously (10). See, e.g., FIGS. 1 and 2.
Kidney specimens of BWF1 mice (37 weeks of age in the prevention group or 7 and 11 weeks after institution of early or late therapies) were embedded in OCT compound and snap frozen. 4-5 μm an sections were air-dried, fixed with cold acetone and incubated with blocking buffer (anti-CD16/CD32 (1/50), 2% normal goat or rat serum, 2% BSA).
Histological analysis of glomerular pathology was done by an investigator blinded to treatment group and included acute inflammatory features (endocapillary hypercellularity, mesangial hypercellularity, cellular necrosis, cellular crescents, and interstitial inflammation), and chronic features (global glomerulosclerosis (GS), focal segmental glomerulosclerosis (FSGS), and interstitial fibrosis or tubular atrophy (IF/TA)). […] The weighted total score of the clinical features was based on this formula: [endocapillary hypercellularity+mesengial hypercellularity+(cellular necrosis*2)+(cellular crescents*2)+interstitial inflammation)/5]+(GS+FSGS+IFTA)/3, with maximum score 5.2. A minimum of 25 glomeruli, of at least 10 mice per group, were scored. Scores from each individual mouse were added and averaged to yield the glomerulonephritis score.

[4] = spleen at age 32 weeks, oral gavage from age 11 weeks, LAQ 25 mg/kg 3 days per week, MMF 100 mg/kg 5 days/week
[5] = Preventive, 25 weeks after treatment
[6] = Preventive, 25 weeks after treatment, in % (unit assumed)
[7] = Therapeutic (PU^lo), 10 wks after initiation of therapy
[8] = Therapeutic (PU^lo), 10 wks after initiation of therapy, in % (unit assumed)

| Structure (SMILES) | Percentage of CD8^+ cells in spleen (spleen cell subsets [1]) | Frequency of cells ± SEM: CD11b^+Ly6C^hiGr-1^− (MΦ^2) (spleen cell subsets [1]) | Frequency of cells ± SEM: CD11b^+Ly6C^intGr-1^+ (Gr-1) (spleen cell subsets [1]) | Frequency of cells ± SEM: CD 19^+ (spleen cell subsets [1]) | Frequency of cells ± SEM: CD19^+CD23^−CD21^+IgM^hi (MZ) (spleen cell subsets [1]) | Percentage of CD4^+ T cells in spleen (spleen cell subsets [1]) | Numbers of MM (splenic PBMC) (spleen cell subsets [2]) | Frequency of cells ± SEM: CD11b^+CD103^− (MΦ^1) (spleen cell subsets [2]; [4]) | Frequency of cells ± SEM: CD11b^+Ly6C^intGr-1^− (MΦ^3) (spleen cell subsets [2]; [4]) | Frequency of cells ± SEM: CD4+ (spleen cell subsets [2]; [5]) | Frequency of cells ± SEM: CD8+ (spleen cell subsets [2]; [5]) | Frequency of cells ± SEM: CD11b^+Ly6C^+Ly6G+ (spleen cell subsets [2]; [5]) | Frequency of cells ± SEM: CD11b^+Ly6C^+Ly6G− (spleen cell subsets [2]; [5]) | Frequency of cells ± SEM: CD11b^+MDSC−(Mφ) (spleen cell subsets [2]; [5]) | Frequency of cells ± SEM: CD11c^+CD11b+(DC) (spleen cell subsets [2]; [5]) | Frequency of cells ± SEM: CD11c^+CD11b− (DC) (spleen cell subsets [2]; [5]) | Frequency of cells ± SEM: CD4^+CD25^+Foxp3^+ (spleen cell subsets [2]; [6]) | Frequency of cells ± SEM: CD19+ (spleen cell subsets [2]; [6]) | Frequency of cells ± SEM: CD4+ (spleen cell subsets [2]; [7]) | Frequency of cells ± SEM: CD8+ (spleen cell subsets [2]; [7]) | further results |
| --- | --- | --- | --- | --- | --- | --- | --- | --- | --- | --- | --- | --- | --- | --- | --- | --- | --- | --- | --- | --- | --- |
| COc1c(C)c2c(c(O)c1C/C=C(\C)CCC(=O)OCCN1CCOCC1)C(=O)OC2 [MMF, mycophenolate mofetil, reference compound] | decreased; also recorded: reduced | 11.81 ± 1.58 | 25.01 ± 5.32 | 57.38 ± 3.89 | 3.78 ± 0.99 | decreased; also recorded: significantly lower percentage | not | 2.26 ± 0.25^A | 23.44 ± 1.89 | 26.2 ± 1.3 | 12.4 ± 0.9 | 15. ± 1.6 | 33.4 ± 1.8 | 59.3 ± 2.3 | 1.0 ± 0.1 | 4.4 ± 0.3 | 7.9 ± 0.4 | 57.4 ± 3.9 | 20.1 ± 0.7 | 13.5 ± 2.1 | Frequency of cells ± SEM: CD11c^+CD103^+ (DC) (spleen cell subsets [2]; [4]): 0.48 ± 0.04^A; Frequency of cells ± SEM: CD19^+CD23^+CD21^+IgM^hi (T2) (spleen cell subsets [2]; spleen at age 32 weeks, oral gavage from age 11 weeks, LAQ 25 mg/kg 3 days per week, MMF 100 mg/kg 5 days/week, in % (unit assumed)): 36.56 ± 4.92; Frequency of cells ± SEM: CD11b^+Ly6C^+Ly6G+ (spleen cell subsets [2]; [7]): 17.5 ± 2.4; Frequency of cells ± SEM: CD11b^+Ly6C^+Ly6G− (spleen cell subsets [2]; [7]): 30.4 ± 2.7; Frequency of cells ± SEM: CD11b^+MDSC−(Mφ) (spleen cell subsets [2]; [7]): 40.5 ± 3.1; Frequency of cells ± SEM: CD11c^+CD11b+(DC) (spleen cell subsets [2]; [7]): 0.9 ± 0.2; Frequency of cells ± SEM: CD11c^+CD11b− (DC) (spleen cell subsets [2]; [7]): 4.1 ± 0.7; Frequency of cells ± SEM: CD4^+CD25^+Foxp3^+ (spleen cell subsets [2]; [8]): 3.2 ± 0.8; Frequency of cells ± SEM: CD19+ (spleen cell subsets [2]; [8]): 45.4 ± 3.3; Anti-dsDNA [3]: not significantly decreased; Increase of proteinuria [3]: prevented increased proteinuria; Rise in serum creatinine [3]: prevented; Survival [3]: significantly prolonged survival; Reduction of endo-capillary hypercellularity, interstitial inflammation, and focal segmental glomerulosclerosis [3]: equally effective |
| CCN(C(=O)c1c(O)c2c(Cl)cccc2n(C)c1=O)c1ccccc1 [LAQ, 5-chloro-N-ethyl-4-hydroxy-1-methyl-2-oxo-N-phenyl-1,2-dihydroquinoline-3-carboxamide] | did not; also recorded: not significantly altered | 12.15 ± 2.11 | 41.50 ± 3.08^A | 68.02 ± 3.83 | 11.85 ± 2.15 | did not | significantly reduced | 2.63 ± 0.30^A | 18.48 ± 2.31^A | 20.2 ± 0.5 | 12.3 ± 0.7 | 31.7 ± 3.6 | 37.5 ± 2.1 | 25.2 ± 1.7 | 0.7 ± 0.1 | 3.8 ± 0.2 | 9.4 ± 0.6 | 68.0 ± 3.8 | 21.3 ± 1.3 | 24.9 ± 2.9 | Percent of CD4^+ Tregs (CD4^+CD25^+Foxp3^+) in splenocytes (spleen cell subsets [2]; FIG. 8): increased; Numbers of two putative regulatory cells, CD4^+CD25^+Foxp3^+ Treg and CD11b^+Ly6C^intGR-1^+ myeloid MM (spleen cell subsets [2]; LAQ compared to MMF): increased; Percentage of CD8^+ cells in spleen (spleen cell subsets [2]; compared to the control mice, listed as laquinimod): did not; Frequency of cells ± SEM: CD19^+CD23^+CD21^+IgM^hi (T2) (spleen cell subsets [2]; [4]): 51.19 ± 4.32^A; Frequency of cells ± SEM: CD11b^+Ly6C^+Ly6G+ (spleen cell subsets [2]; [7]): 33.2 ± 5.6; Frequency of cells ± SEM: CD11b^+Ly6C^+Ly6G− (spleen cell subsets [2]; [7]): 38.7 ± 1.9; Frequency of cells ± SEM: CD11b^+MDSC−(Mφ) (spleen cell subsets [2]; [7]): 25.6 ± 3.3; Frequency of cells ± SEM: CD11c^+CD11b+(DC) (spleen cell subsets [2]; [7]): 1.0 ± 0.2; Frequency of cells ± SEM: CD11c^+CD11b− (DC) (spleen cell subsets [2]; [7]): 4.5 ± 0.4; Frequency of cells ± SEM: CD4^+CD25^+Foxp3^+ (spleen cell subsets [2]; [8]): 2.2 ± 0.1; Frequency of cells ± SEM: CD19+ (spleen cell subsets [2]; [8]): 51.1 ± 3.3; Percentage of CD4^+ T cells in spleen (spleen cell subsets [2]; vs control mice, listed as laquinimod): did not; Anti-dsDNA [3]: not significantly decreased; Increase of proteinuria [3]: prevented increased proteinuria; Rise in serum creatinine [3]: prevented; Survival [3]: significantly prolonged survival; Reduction of endo-capillary hypercellularity, interstitial inflammation, and focal segmental glomerulosclerosis [3]: equally effective |
